# Measured values from patent US20130172408A1, “Medicaments Based on Dinuclear Arene Ruthenium Complexes Comprising Bridging Thiolato, Selenolato or Alkoxo Ligands” (Universite de Neuchatel, priority 2010, published 2013).
# Values joined by “and” are separate entries in the source; they are usually repeats but may differ in a detail not shown here. Equal entries are not always repeated. Where two headings read alike, the source gives them in different places.
# Experiments:
# [1] = system: A2780 human ovarian cancer cells; test: MTT assay, inhibition of cell growth, A2780; format: cell-based
# Experimental: (§1) Human A2780 and A2780cisR ovarian carcinoma cells were obtained from the European Centre of Cell Cultures (ECACC, Salisbury, UK) and maintained in culture as described by the provider. The cells were routinely grown in RPMI 1640 medium with GlutaMAX™ containing 5% foetal calf serum (FCS) and antibiotics (penicillin and streptomycin) at 37° C. and 5% CO2.
# (§2) The antiproliferative activity of complexes 9-20 was evaluated against the human ovarian A2780 cancer cell line and its cisplatin-resistant derivative A2780cisR using the MTT assay, which measures mitochondrial dehydrogenase activity as an indication of cell viability. For the evaluation of growth inhibition tests, the cells were seeded in 96-well plates (25×10^3 cells per well) and grown for 24 h in complete medium. Complexes were dissolved in DMSO and added to the required concentration to the cell culture for 72 h incubation. Solutions of the compounds were applied by diluting a freshly prepared stock solution of the corresponding compound in aqueous RPMI medium with GlutaMAX™ (20 mM). Following drug exposure, 3-(4,5-dimethylthiazol-2-yl)-2,5-diphenyltetrazolium bromide (MTT) was added to the cells at a final concentration of 0.25 mg/mL and incubated for 2 h, then the culture medium was aspirated and the violet formazan (artificial chromogenic precipitate of the reduction of tetrazolium salts by dehydrogenases and reductases) dissolved in DMSO. The optical density of each well (96-well plates) was quantified three times in triplicates at 540 nm using a multiwall plate reader (iEMS Reader MF, Labsystems, US), and the percentage of surviving cells was calculated from the ratio of absorbance of treated to untreated cells. The IC50 values for the inhibition of cell growth were determined by fitting the plot of the logarithmic percentage of surviving cells against the logarithm of drug concentration using a linear regression function. The median value and the median absolute deviation were obtained from the Excel™ software (Microsoft™) and those values are reported in Table 2.
# (§3) The toxicity of further compounds in accordance with the invention shown in FIGS. 9A and 9B and of the prior art compounds PA1 and PA2 was assessed as described in Example 6.
# [2] = system: A2780cisR human ovarian cancer cells (cisplatin-resistant); test: MTT assay, inhibition of cell growth, A2780cisR; format: cell-based
# Experimental: as §1, §2, §3
# [3] = Catalytic oxidation of glutathione to glutathione disulfide in aqueous solution
# [4] = Stability by 1H NMR spectroscopy; format: physicochemical; conditions: 12 hours at 37° C. in DMSO-d6, in D2O/DMSO-d6 (95:5), and in DMSO-d6 with two drops of RPMI 1640 medium containing 5% foetal calf serum
# [5] = Catalytic oxidation of cysteine to cystine in aqueous solution
# Solubility (qualitative) = format: physicochemical; conditions: water and organic solvents
# Text: The spectroscopic data for the analogues [18]Cl, [19]Cl and [20]Cl is in excellent agreement with that reported previously Mashima et al., Schacht et al. Chérioux et al., cited above).
# [6] = system: PLC/PRF/5 human liver cancer cells; conditions: MTT assay, from JP 7089855; cited from earlier work
# [7] = 72 h incubation, MTT, median value (Table 2), read-out: IC50 A2780
# [8] = as described in Example 6 (Table 3), read-out: Average IC50 A2780
# [9] = 72 h incubation, MTT, median value (Table 2), read-out: IC50 A2780cisR
# [10] = as described in Example 6 (Table 3), read-out: Average IC50 A2780cisR
Molecule,"IC50 [1, 7]","IC50 [1, 8]","IC50 [2, 9]","IC50 [2, 10]",other results
"COc1ccc(C=CC(=O)OCCCCc2ccccc2)cc1.COc1ccc(C=CC(=O)OCCCCc2ccccc2)cc1.[Cl-].[Ru+2].[Ru+2].[S-]c1ccccc1.[S-]c1ccccc1.[S-]c1ccccc1 [[12]Cl, [trans-(C6H6—(CH2)4—O—C(O)—CH═CH—C6H4-p-O—CH3)2Ru2(SPh)3]^+]",490 nM,420 nM,560 nM,545 nM,
[Ru2(p-MeC6H4Pr^i)2(p-SC6H4OH)3]^+ [Compound 21],,533 nM,,1470 nM,
"Cc1c(C)c(C)c(C)c(C)c1C.Cc1c(C)c(C)c(C)c(C)c1C.[Cl-].[Ru+2].[Ru+2].[S-]c1ccccc1.[S-]c1ccccc1.[S-]c1ccccc1 [[19]Cl, [(C6Me6)2Ru2(SPh)3]^+]",400 nM,433 nM,1200 nM,1200 nM,
[Ru2(p-C6Me6)2(p-SC6H4OH)3]^+ [Compound 22],,500 nM,,500 nM,
[(C6H6—(CH2)2—O—C(O)—C6H4-p-O—(CH2)6CH3)2Ru2(SPh)3]^+ [[9]Cl],2200 nM,,2700 nM,,
"COc1ccc(C=CC(=O)OCCc2ccccc2)cc1.COc1ccc(C=CC(=O)OCCc2ccccc2)cc1.[Cl-].[Ru+2].[Ru+2].[S-]c1ccccc1.[S-]c1ccccc1.[S-]c1ccccc1 [[11]Cl, [trans-(C6H6—(CH2)2—O—C(O)—CH═CH—C6H4-p-O—CH3)2Ru2(SPh)3]^+]",820 nM,815 nM,1360 nM,1360 nM,
"CC1=C(C)C(C)C(C)=C1C.CC1=C(C)C(C)C(C)=C1C.Sc1ccccc1.Sc1ccccc1.Sc1ccccc1.[Ru+3].[Ru+3] [PA1, [(CsMes)2Ru2(p-SC6H5)3]^+, reference compound]",,3050 nM,,2190 nM,
[(p-^iPrC6H4Me)2Ru2(S-p-C6H4Me)3]^+ [[20]C1],130 nM,130 nM,80 nM,77 nM,Catalysis of the reaction of Glutathione (GSH) to form glutathione disulfide (GSSG) [3]: very high efficiency; Stability (1H NMR signals) [4]: stable under these conditions; Catalysis of the reaction of Cysteine (Cys) to form Cystine [5]: very high efficiency
[(C6H6)2Ru2(SPh)3]^+ [[17]C1],380 nM,,480 nM,,"Solubility (Solubility (qualitative)): soluble in water and in organic solvents; IC50 ([1]; as described in Example 6 (Table 3), listed as 17, read-out: Average IC50 A2780): 240 nM and 377 nM; IC50 ([2]; as described in Example 6 (Table 3), listed as 17, read-out: Average IC50 A2780cisR): 253 nM and 477 nM"
"Cc1ccc(C(C)C)cc1.Cc1ccc(C(C)C)cc1.[Cl-].[Ru+2].[Ru+2].[S-]c1ccccc1.[S-]c1ccccc1.[S-]c1ccccc1 [[18]C1, [(p-^iPrC6H4Me)2Ru2(SPh)3]^+]",240 nM,,250 nM,,
"CCCCCCCOc1ccc(C(=O)OCCCCc2ccccc2)cc1.CCCCCCCOc1ccc(C(=O)OCCCCc2ccccc2)cc1.[Cl-].[Ru+2].[Ru+2].[S-]c1ccccc1.[S-]c1ccccc1.[S-]c1ccccc1 [[10]Cl, [(C6H6—(CH2)4—O—C(O)—C6H4-p-O—(CH2)6CH3)2Ru2(SPh)3]^+]",4900 nM,,5600 nM,,
"Cc1c(C)c(C)[c-](C)c1C.Cc1c(C)c(C)[c-](C)c1C.[Ru+3].[Ru+3].[S-]c1ccccc1.[S-]c1ccccc1.[S-]c1ccccc1 [PA1, [(CsMes)2Ru2(p-SC6H5)3]^+, reference compound]",,,,,IC50 [6]: 131 µg/mL
"CC1=C(C)C(C)C(C)=C1C.CC1=C(C)C(C)C(C)=C1C.Cc1ccc(S)cc1.Cc1ccc(S)cc1.Cc1ccc(S)cc1.[Ru+3].[Ru+3] [PA2, [(CsMe5)2Ru2(p-SC6H4Me)3]^+, reference compound]",,1930 nM,,1550 nM,
